Source: US10004701B2, “Methods and compositions for treating infection” (UNIVERSITY OF ROCHESTER, priority 2012, dated 2018)
Structures can show the parent of a compound that is named as a salt. Where two headings read alike, the source gives them in different places.

Assays:
Test in all cases: AK assay 384-well format, Prestwick library screening
E. faecium = type: cell-based, Enterococcus faecium; settings: 50 μM final drug concentration; for fold induction at 50 µM: Enterococcus faecium, 3 h
[1] = tested on: S. aureus strain USA300-0114; type: cell-based, Staphylococcus aureus; settings: 50 μM final drug concentration; for fold induction at 50 µM: Staphylococcus aureus, USA300, 3 h
K. pneumoniae = type: cell-based, Klebsiella pneumoniae; settings: 50 μM final drug concentration; for fold induction at 50 µM: Klebsiella pneumoniae, 3 h
[2] = tested on: A. baumannii strain 98-37-09; type: cell-based, Acinetobacter baumannii; settings: 50 μM final drug concentration; for fold induction at 50 µM: Acinetobacter baumannii, 983709, 3 h
P. aeruginosa = type: cell-based, Pseudomonas aeruginosa; settings: 50 μM final drug concentration; for fold induction at 50 µM: Pseudomonas aeruginosa, 3 h
E. cloacae = type: cell-based, Enterobacter cloacae; settings: 50 μM final drug concentration; for fold induction at 50 µM: Enterobacter cloacae, 3 h
E. coli = type: cell-based, Escherichia coli; settings: 50 μM final drug concentration; for fold induction at 50 µM: Escherichia coli, 3 h
[3] = planktonic E. faecium, cutoff for positive-scoring molecules 3-fold increase, read-out: AK-based Prestwick Library Screening Results, E. faecium (increase in extracellular AK activity)
[4] = planktonic S. aureus, cutoff for positive-scoring molecules 3-fold increase, read-out: AK-based Prestwick Library Screening Results, S. aureus (increase in extracellular AK activity)
[5] = planktonic K. pneumoniae, cutoff for positive-scoring molecules 3-fold increase, read-out: AK-based Prestwick Library Screening Results, K. pneumoniae (increase in extracellular AK activity)
[6] = planktonic A. baumannii, cutoff for positive-scoring molecules 3-fold increase, read-out: AK-based Prestwick Library Screening Results, A. baumannii (increase in extracellular AK activity)
[7] = planktonic P. aeruginosa, cutoff for positive-scoring molecules 3-fold increase, read-out: AK-based Prestwick Library Screening Results, P. aeruginosa (increase in extracellular AK activity)
[8] = planktonic E. cloacae, cutoff for positive-scoring molecules 3-fold increase, read-out: AK-based Prestwick Library Screening Results, E. cloacae (increase in extracellular AK activity)
[9] = planktonic E. coli, cutoff for positive-scoring molecules 3-fold increase, read-out: AK-based Prestwick Library Screening Results, E. coli (increase in extracellular AK activity)
[10] = planktonic E. faecium, 384-well
[11] = planktonic K. pneumoniae, 384-well
[12] = planktonic A. baumannii, 384-well
[13] = planktonic P. aeruginosa, 384-well
[14] = planktonic E. cloacae, 384-well

Question: `CN(C)/N=N/c1[nH]cnc1C(N)=O` [Dacarbazine] was tested. Which fold induction at 50 µM (E. faecium; [3]) did it give?
Answer: 1.1

Question: And the fold induction at 50 µM [1, 4]?
Answer: 0.7

Question: And the fold induction at 50 µM (K. pneumoniae; [5])?
Answer: 3.8

Question: What about the fold induction at 50 µM [2, 6] of the same molecule?
Answer: 1.6

Question: And the fold induction at 50 µM (P. aeruginosa; [7])?
Answer: 0.9

Question: What about the fold induction at 50 µM (E. cloacae; [8]) of the same molecule?
Answer: 0.8

Question: What about the fold induction at 50 µM (E. coli; [9]) of the same molecule?
Answer: 2

Question: `COc1cc2c3cc1Oc1cc(ccc1O)C[C@@H]1c4c(cc(OC)c(O)c4Oc4ccc(cc4)C[C@@H]3N(C)CC2)CC[N+]1(C)C.Cl.O.O.O.O.O.[Cl-]` [Tubocurarine chloride pentahydrate (+)] was tested. Which “AK-based Prestwick Library Screening Results: E. faecium (increase in extracellular AK activity)” value (E. faecium; [10]) did it give?
Answer: 0.9

Question: And the “AK-based Prestwick Library Screening Results: S. aureus (increase in extracellular AK activity)” value ([1]; planktonic S. aureus, 384-well)?
Answer: 0.5

Question: What about the “AK-based Prestwick Library Screening Results: K. pneumoniae (increase in extracellular AK activity)” value (K. pneumoniae; [11]) of the same molecule?
Answer: 0.6

Question: What about the “AK-based Prestwick Library Screening Results: A. baumannii (increase in extracellular AK activity)” value [2, 12] of the same molecule?
Answer: 0.7

Question: What about the “AK-based Prestwick Library Screening Results: P. aeruginosa (increase in extracellular AK activity)” value (P. aeruginosa; [13]) of the same molecule?
Answer: 0.6

Question: What about the “AK-based Prestwick Library Screening Results: E. cloacae (increase in extracellular AK activity)” value (E. cloacae; [14]) of the same molecule?
Answer: 0.6

Question: And the “AK-based Prestwick Library Screening Results: E. coli (increase in extracellular AK activity)” value (E. coli; planktonic E. coli, 384-well)?
Answer: 0.7

Question: With `Fc1ccc(C(c2ccc(F)cc2)N2CCN(C/C=C/c3ccccc3)CC2)cc1` [Flunarizine dihydrochloride] as the molecule, how does the fold induction at 50 µM (E. faecium; planktonic E. faecium, 384-well, cutoff for positive-scoring molecules 3-fold increase, read-out: AK-based Prestwick Library Screening Results: E. faecium (increase in extracellular AK activity)) read?
Answer: 1.3

Question: And the fold induction at 50 µM ([1]; planktonic S. aureus, 384-well, cutoff for positive-scoring molecules 3-fold increase, read-out: AK-based Prestwick Library Screening Results: S. aureus (increase in extracellular AK activity))?
Answer: 1.1

Question: And the fold induction at 50 µM (K. pneumoniae; planktonic K. pneumoniae, 384-well, cutoff for positive-scoring molecules 3-fold increase, read-out: AK-based Prestwick Library Screening Results: K. pneumoniae (increase in extracellular AK activity))?
Answer: 1.4

Question: What about the fold induction at 50 µM ([2]; planktonic A. baumannii, 384-well, cutoff for positive-scoring molecules 3-fold increase, read-out: AK-based Prestwick Library Screening Results: A. baumannii (increase in extracellular AK activity)) of the same molecule?
Answer: 2.6

Question: And the fold induction at 50 µM (P. aeruginosa; planktonic P. aeruginosa, 384-well, cutoff for positive-scoring molecules 3-fold increase, read-out: AK-based Prestwick Library Screening Results: P. aeruginosa (increase in extracellular AK activity))?
Answer: 1.3

Question: What about the fold induction at 50 µM (E. cloacae; planktonic E. cloacae, 384-well, cutoff for positive-scoring molecules 3-fold increase, read-out: AK-based Prestwick Library Screening Results: E. cloacae (increase in extracellular AK activity)) of the same molecule?
Answer: 1.6

Question: And the fold induction at 50 µM (E. coli; planktonic E. coli, 384-well, cutoff for positive-scoring molecules 3-fold increase, read-out: AK-based Prestwick Library Screening Results: E. coli (increase in extracellular AK activity))?
Answer: 1.7

Question: Which results are given for `c1ccc2c(c1)CCCc1cc(NCCN3CCOCC3)nnc1-2` [SR-95639A]?
Answer: AK-based Prestwick Library Screening Results: E. faecium (increase in extracellular AK activity) (E. faecium; [10]): 0.8; AK-based Prestwick Library Screening Results: S. aureus (increase in extracellular AK activity) ([1]; planktonic S. aureus, 384-well): 0.4; AK-based Prestwick Library Screening Results: K. pneumoniae (increase in extracellular AK activity) (K. pneumoniae; [11]): 0.5; AK-based Prestwick Library Screening Results: A. baumannii (increase in extracellular AK activity) [2, 12]: 0.5; AK-based Prestwick Library Screening Results: P. aeruginosa (increase in extracellular AK activity) (P. aeruginosa; [13]): 0.4; AK-based Prestwick Library Screening Results: E. cloacae (increase in extracellular AK activity) (E. cloacae; [14]): 0.4; AK-based Prestwick Library Screening Results: E. coli (increase in extracellular AK activity) (E. coli; planktonic E. coli, 384-well): 0.5

Question: What does the source list for `CC(=O)O[C@H]1C[C@@]2(C)[C@@H](C[C@@H](O)[C@H]3[C@@]4(C)CC[C@@H](O)[C@@H](C)[C@@H]4CC[C@@]32C)/C1=C(\CCC=C(C)C)C(=O)O` [Fusidic acid sodium salt]?
Answer: fold induction at 50 µM (E. faecium; planktonic, cutoff for positive 3-fold increase, read-out: AK-based Prestwick Library Screening Results, E. faecium (fold increase in extracellular AK activity)): 1.1; fold induction at 50 µM ([1]; planktonic, cutoff for positive 3-fold increase, read-out: AK-based Prestwick Library Screening Results, S. aureus (fold increase in extracellular AK activity)): 4.2; fold induction at 50 µM (K. pneumoniae; planktonic, cutoff for positive 3-fold increase, read-out: AK-based Prestwick Library Screening Results, K. pneumoniae (fold increase in extracellular AK activity)): 1.1; fold induction at 50 µM ([2]; planktonic, cutoff for positive 3-fold increase, read-out: AK-based Prestwick Library Screening Results, A. baumannii (fold increase in extracellular AK activity)): 1.3; fold induction at 50 µM (P. aeruginosa; planktonic, cutoff for positive 3-fold increase, read-out: AK-based Prestwick Library Screening Results, P. aeruginosa (fold increase in extracellular AK activity)): 1.1; fold induction at 50 µM (E. cloacae; planktonic, cutoff for positive 3-fold increase, read-out: AK-based Prestwick Library Screening Results, E. cloacae (fold increase in extracellular AK activity)): 1.4; fold induction at 50 µM (E. coli; planktonic, cutoff for positive 3-fold increase, read-out: AK-based Prestwick Library Screening Results, E. coli (fold increase in extracellular AK activity)): 1.1

Question: `O=C(CCCN1CCC(O)(c2ccc(Br)cc2)CC1)c1ccc(F)cc1` [Bromperidol] was tested. Which fold induction at 50 µM (E. faecium; [3]) did it give?
Answer: 0.9

Question: What about the fold induction at 50 µM [1, 4] of the same molecule?
Answer: 0.7

Question: What about the fold induction at 50 µM (K. pneumoniae; [5]) of the same molecule?
Answer: 0.7

Question: What about the fold induction at 50 µM [2, 6] of the same molecule?
Answer: 1

Question: What about the fold induction at 50 µM (P. aeruginosa; [7]) of the same molecule?
Answer: 1.1

Question: And the fold induction at 50 µM (E. cloacae; [8])?
Answer: 1.1

Question: What about the fold induction at 50 µM (E. coli; [9]) of the same molecule?
Answer: 0.8

Question: What does the source list for `Clc1ccc2c(c1)C(N1CCNCC1)=Nc1ccccc1O2` [Amoxapine]?
Answer: fold induction at 50 µM (E. faecium; 384-well format, cutoff for positive-scoring molecules 3-fold increase, read-out: AK-based Prestwick Library Screening Results, E. faecium (increase in extracellular AK activity)): 0.9; fold induction at 50 µM ([1]; 384-well format, cutoff for positive-scoring molecules 3-fold increase, read-out: AK-based Prestwick Library Screening Results, S. aureus (increase in extracellular AK activity)): 0.7; fold induction at 50 µM (K. pneumoniae; 384-well format, cutoff for positive-scoring molecules 3-fold increase, read-out: AK-based Prestwick Library Screening Results, K. pneumoniae (increase in extracellular AK activity)): 0.8; fold induction at 50 µM ([2]; 384-well format, cutoff for positive-scoring molecules 3-fold increase, read-out: AK-based Prestwick Library Screening Results, A. baumannii (increase in extracellular AK activity)): 0.8; fold induction at 50 µM (P. aeruginosa; 384-well format, cutoff for positive-scoring molecules 3-fold increase, read-out: AK-based Prestwick Library Screening Results, P. aeruginosa (increase in extracellular AK activity)): 0.9; fold induction at 50 µM (E. cloacae; 384-well format, cutoff for positive-scoring molecules 3-fold increase, read-out: AK-based Prestwick Library Screening Results, E. cloacae (increase in extracellular AK activity)): 0.9; fold induction at 50 µM (E. coli; 384-well format, cutoff for positive-scoring molecules 3-fold increase, read-out: AK-based Prestwick Library Screening Results, E. coli (increase in extracellular AK activity)): 1

Question: What does the source list for `COC(=O)[C@H]1[C@H]2C[C@@H]3c4[nH]c5cc(OC)ccc5c4CCN3C[C@H]2C[C@@H](OC(=O)c2cc(OC)c(OC)c(OC)c2)[C@@H]1OC` [Reserpine]?
Answer: fold induction at 50 µM (E. faecium; cutoff for positive-scoring molecules 3-fold increase, read-out: AK-based Prestwick Library Screening Results, E. faecium (fold increase in extracellular AK activity)): 1.1; fold induction at 50 µM ([1]; cutoff for positive-scoring molecules 3-fold increase, read-out: AK-based Prestwick Library Screening Results, S. aureus (fold increase in extracellular AK activity)): 1.3; fold induction at 50 µM (K. pneumoniae; cutoff for positive-scoring molecules 3-fold increase, read-out: AK-based Prestwick Library Screening Results, K. pneumoniae (fold increase in extracellular AK activity)): 1.2; fold induction at 50 µM ([2]; cutoff for positive-scoring molecules 3-fold increase, read-out: AK-based Prestwick Library Screening Results, A. baumannii (fold increase in extracellular AK activity)): 1.5; fold induction at 50 µM (P. aeruginosa; cutoff for positive-scoring molecules 3-fold increase, read-out: AK-based Prestwick Library Screening Results, P. aeruginosa (fold increase in extracellular AK activity)): 1.4; fold induction at 50 µM (E. cloacae; cutoff for positive-scoring molecules 3-fold increase, read-out: AK-based Prestwick Library Screening Results, E. cloacae (fold increase in extracellular AK activity)): 1.5; fold induction at 50 µM (E. coli; cutoff for positive-scoring molecules 3-fold increase, read-out: AK-based Prestwick Library Screening Results, E. coli (fold increase in extracellular AK activity)): 1.3
